# Measurements reported in patent US4386076A, “(E)-5-(2-Halogenovinyl)-arabinofuranosyluracil, process for preparation thereof, and uses thereof” (Yamasa Shoyu Kabushiki Kaisha, priority 1979, dated 1983).
# Where two headings read alike, the source gives them in different places.
# Key:
# HSV-2 = assay: Anti-HSV-2 activity (Pharmacological Test 3); type: cell-based, type-2 herpes (HSV-2); conditions: for anti-HSV-2 activity compared with 5-vinyl-araU: relative to 5-vinyl-araU
# Experimental: (§1) In accordance with the Sidwell et al. method (cf. Applied Microbiology, Vol. 22, No. 5, P. 797, 1971), the anti-virus activities of 5-bromovinyl- and 5-chlorovinyl-araU on human embryonic lung fibroblasts (HEL-F) were determined by using as controls 5-iodo-2'-deoxyuridine (IDU) and arabinofuranosyladenine (araA).
# (§2) In conformance with Pharmacological Tests 1 and 2, the anti-virus activities and cell proliferations of 5-bromovinyl-araU and 5-chlorovinyl-araU were compared with those of 5-vinyl-araU and 5-bromovinyl-2'-deoxyuridine (5-bromovinyl-dUrd).
# HEL-F [1] = assay: Anti-HEL-F, cell proliferation (Pharmacological Test 3); type: cell-based, human; conditions: for HEL-F proliferation inhibitory effect compared with 5-bromovinyl-dUrd: Test 3, relative to 5-bromovinyl-dUrd; for cell proliferation inhibiting activity relative to 5-vinyl-araU: Test 3, relative to 5-vinyl-araU
# Experimental: (§3) The effects of 5-bromovinyl araU and 5-chlorovinyl-araU on proliferation of HEL-F were compared with those of IDU and araA in accordance with the Machida et al. method (cf. Antimicrobial Agents and Chemotherapy, Vol. 16, No. 2, p. 158, 1979).
# (§4) In the growth medium of HEL-F under proliferation (culture medium: Eagle's minimal essential medium supplemented with 10% fetal bovine serum) was added a test compound diluted in serial two-fold dilution and then incubated for 4 days. The numbers of increased cells with various concentrations of the compound tested were compared with those of the control groups wherein no compound was added.
# as §2
# [2] = as above; type: cell-based, human; conditions: human, hel-f cells
# Experimental: as §3, §4, §2
# herpes virus = assay: Anti-virus activity, overall statement; type: cell-based; conditions: for anti-virus activity compared with IDU and araA: Test 1, relative to IDU and araA; for anti-virus activity compared with 5-bromovinyl-dUrd: Test 3, relative to 5-bromovinyl-dUrd
# Experimental: as §1, §2
# HSV, isolate-1 = assay: Anti-virus activity on HEL-F, HSV isolate-1 (Pharmacological Test 1, Sidwell et al. method); type: cell-based, herpes simplex virus clinical isolated strain 1; conditions: for MIC: read-out: MIC (minimal inhibitory concentration for cytopathogenic effect caused by the infection)
# Experimental: as §1
# (§5) *MIC = minimal inhibitory concentration for cytopathogenic effect caused
# ^(2) HSV, isolate1 = herpes simplex virus clinical isolated strain 1
# HEL-F [3] = assay: Effect on proliferation of HEL-F (Pharmacological Test 2, Machida et al. method); type: cell-based, human; conditions: Test 2, relative to IDU and araA
# Experimental: as §3, §4
# [4] = as above; type: cell-based, human; conditions: human, hel-f cells
# Experimental: as §3, §4
# HSV-1, VR-3 = assay: Anti-virus activity on HEL-F, HSV-1 VR-3 (Pharmacological Test 1, Sidwell et al. method); type: cell-based, herpes simplex virus type 1 VR3 strain
# Experimental: as §1, §5
# ^(1) HSV1, VR3 = herpes simplex virus type 1 VR3 strain
# HSV-1 = assay: Anti-HSV-1 activity (Pharmacological Test 3); type: cell-based, herpes simplex virus type 1; conditions: for anti-HSV-1 activity compared with 5-vinyl-araU: Test 3, relative to 5-vinyl-araU
# Experimental: as §1, §2
# VZV [5] = assay: Anti-virus activity on HEL-F, VZV (Pharmacological Test 1, Sidwell et al. method); type: cell-based, varicella-zoster virus; conditions: for MIC: Human alphaherpesvirus 3, read-out: MIC (minimal inhibitory concentration for cytopathogenic effect caused by the infection)
# Experimental: as §1, §5
# ^(3) VZV = varicellazoster virus
# VZV [6] = assay: Anti-VZV activity (Pharmacological Test 3); type: cell-based, varicella-zoster virus; conditions: for MIC: Human alphaherpesvirus 3
# Experimental: as §1, §2
# [7] = Human alphaherpesvirus 2, Test 3, read-out: Anti-HSV-2 MIC
# [8] = HEL-F under proliferation, incubated for 4 days, Test 2, read-out: ID50 (50% inhibition of proliferation)
# [9] = Human alphaherpesvirus 1, HSV-1 VR-3, HEL-F, Test 1, read-out: MIC (minimal inhibitory concentration for cytopathogenic effect caused by the infection)
# [10] = Human alphaherpesvirus 1, Test 3, read-out: Anti-HSV-1 MIC
SMILES,MIC (HSV-2; [7]) [µg/mL],Anti-HSV-2 VR (HSV-2; Test 3),anti-HSV-2 activity compared with 5-vinyl-araU (HSV-2),HEL-F proliferation inhibitory effect compared with 5-bromovinyl-dUrd (HEL-F [1]),cell proliferation inhibiting activity relative to 5-vinyl-araU (HEL-F [1]),CC50 at 96 h [2] [µg/mL],anti-virus activity compared with IDU and araA (herpes virus),anti-virus activity compared with 5-bromovinyl-dUrd (herpes virus),"VR (virus rating) (HSV, isolate-1; HSV isolate-1, HEL-F, Test 1)","MIC (HSV, isolate-1; HSV isolate-1, HEL-F, Test 1) [µg/mL]",inhibition of cell proliferation compared with IDU and araA (HEL-F [3]),"CC50 at 96 h [4, 8] [µg/mL]","VR (virus rating) (HSV-1, VR-3; HSV-1 VR-3, HEL-F, Test 1)","MIC (HSV-1, VR-3; [9]) [µg/mL]",MIC (HSV-1; [10]) [µg/mL],Anti-HSV-1 VR (HSV-1; Test 3),VR (virus rating) (VZV [5]),MIC (VZV [5]) [µg/mL],Anti-VZV VR (VZV [6]),MIC (VZV [6]) [µg/mL],other results
"O=c1[nH]c(=O)n([C@@H]2O[C@H](CO)[C@@H](O)[C@@H]2O)cc1/C=C/Br [5-bromovinyl-araU, (E)-5-(2-bromovinyl)-1-β-D-arabinofuranosyluracil]",100,0.9,inferior to 5-vinyl-araU,less than that of 5-bromovinyl-dUrd,one half relative to 5-vinyl-araU,> 1000,stronger anti-virus activities,potencies similar to that of 5-bromovinyl-dUrd,3.8,0.032,markedly weak inhibition of cell proliferation,> 1000,3.8,0.032,0.032,3.7,3.5,0.1,3.5,0.1,anti-HSV-2 activity compared with anti-HSV-1 activity (HSV-2; HSV-2 versus HSV-1): lower than that on type-1 herpes (HSV-1); anti-HSV-1 activity compared with 5-vinyl-araU (HSV-1): significantly greater anti-HSV-1 activity
"O=c1[nH]c(=O)n([C@H]2C[C@H](O)[C@@H](CO)O2)cc1I [IDU, 5-iodo-2'-deoxyuridine, reference compound]",,,,,,,,,2.1,3.2,,6,2.4,3.2,,,2.3,3.2,,,
"O=c1[nH]c(=O)n([C@H]2C[C@H](O)[C@@H](CO)O2)cc1/C=C/Br [5-bromovinyl-dUrd, 5-bromovinyl-2'-deoxyuridine, reference compound]",,0.7,inferior to 5-vinyl-araU,,,,,,,,,,,,,3.7,,,,,"MIC (HSV-2; Human alphaherpesvirus 2, read-out: Anti-HSV-2 MIC): 100 µg/mL; MIC (HSV-1; Human alphaherpesvirus 1, read-out: Anti-HSV-1 MIC): 0.032 µg/mL"
"Nc1ncnc2c1ncn2[C@@H]1O[C@H](CO)[C@@H](O)[C@@H]1O [araA, arabinofuranosyladenine, reference compound]",,,,,,,,,1.9,,,,1.9,,,,,,,,"MIC (HSV, isolate-1): 10 µg/mL; CC50 at 96 h [4]: 4 µg/mL; MIC (HSV-1, VR-3; Human alphaherpesvirus 1, read-out: MIC (minimal inhibitory concentration for cytopathogenic effect caused by the infection)): 10 µg/mL"
"O=c1[nH]c(=O)n([C@@H]2O[C@H](CO)[C@@H](O)[C@@H]2O)cc1/C=C/Cl [5-chlorovinyl-araU, (E)-5-(2-chlorovinyl)-1-β-D-arabinofuranosyluracil]",> 1000,0.2,,less than that of 5-bromovinyl-dUrd,one half relative to 5-vinyl-araU,1000,stronger anti-virus activities,potencies similar to that of 5-bromovinyl-dUrd,3.1,0.1,markedly weak inhibition of cell proliferation,> 500,3.3,0.1,0.1,3.5,3.4,0.1,3.4,0.1,anti-HSV-1 activity compared with 5-vinyl-araU (HSV-1): significantly greater anti-HSV-1 activity
"C=Cc1cn([C@@H]2O[C@H](CO)[C@@H](O)[C@@H]2O)c(=O)[nH]c1=O [5-vinyl-araU, 5-vinylarabinofuranosyluracil, reference compound]",1,2.7,,,,650,,,,,,,,,0.1,3.3,,,2.9,0.32,
